Laboratory results reported in patent publication US11666558B2, “Methods of treating intraocular pressure with activators of Tie-2” (EyePoint Pharmaceuticals, Inc., priority 2015, dated 2023).
Like-named read-outs stand apart in the source and are kept apart here.

Tests used:
[1] = Plasma concentrations and pharmacokinetic parameters after topical ocular, subcutaneous and intravitreal administration; format: in vivo, New Zealand White rabbits; settings: plasma, plasma; for AUC(0-t): read-out: AUClast (± SE); for concentration at 0.5 hr: 0.50 hr
Description: To measure the concentration of Compound 1 in plasma and ocular tissues following topical ocular, subcutaneous, and intravitreal administration, New Zealand White rabbits were administered Compound 1, and plasma and ocular samples were collected at pre-determined time points. Compound 1 formulations were prepared fresh on each day of dosing.
New Zealand White rabbits weighing 2.5 to 3.5 kg were used on this study. Rabbits were housed one per cage. Animals were not fasted and only healthy animals with no ocular illness were used. Two rabbits per group were sacrificed at each of four ocular tissue sampling time points for a total of eight rabbits per group.
Animals were anesthetized for ocular (topical) and intravitreal dosing following the 12IA7 IACUC protocol. Each rabbit received a bolus dose of test formulation either via topical ocular administration 3 times daily on Days 1 and 2 (at 0, 6, and 12 hours), and once on Day 3 (at 0 hours) into both eyes; via intravitreal administration into both eyes once on Day 1 (at 0 hours); or via subcutaneous administration 2 times daily on Days 1 and 2 (at 0 and 8 hours) and once daily on Day 3 (at 0 hours). Doses were given within an approximately 1 hour window each day where applicable.
Each blood sample was collected on Day 3 post dose at pre-determined time points from the rabbits via an ear vessel and placed into chilled polypropylene tubes containing sodium heparin as an anticoagulant. Samples were spun by centrifuge at 4° C. and 3,000×g for 5 minutes. Samples were maintained chilled throughout processing. Each plasma sample was placed on dry ice and stored in a freezer at −60° C. to −80° C. pending bioanalysis.
An LC-MS/MS method was developed for the determination of Compound 1 in rabbit aqueous tissues (plasma, aqueous and vitreous humor) and solid ocular tissue samples. A pre-study standard curve was analyzed to determine the specificity, range, and lower limit of quantitation of the method. Plasma and tissue homogenate study samples were extracted and analyzed. All the samples were treated identically to the standards.
One eight-point standard curve was used in each analytical batch. To be accepted, each batch must have had at least five of eight standards with accuracy within ±20% of nominal, except at the lower limit of quantification (LLOQ), where ±25% was acceptable.
Pharmacokinetic parameters were calculated from the time course of the plasma concentration. The maximum plasma concentration (Cmax) and time to the maximum plasma drug concentration (Tmax) were the observed values for each concentration-time profiles. The area under the plasma drug concentration-time curve (AUClast, with last being from time 0 to the last quantifiable point) was calculated using the trapezoidal formula. The mean residence time MRTlast was calculated as a ratio of AUMClast (area under the first movement curve) to AUClast.

[2] = In vitro diffusion across rabbit cornea and sclera in Franz cell; format: in vitro ADME; settings: 1.5% of the sodium salt with 5% HPβCD in 50:50 D5W:sterile water
[3] = New Zealand White, rabbit, other: intravitreal, 1.54 mg/kg, intravitreal 2.5 mg/eye (~1.54 mg/kg), suspension
[4] = New Zealand White, rabbit, other: intravitreal, 2.5 mg, intravitreal 2.5 mg/eye (~1.54 mg/kg), suspension
[5] = New Zealand White, rabbit, other: intravitreal, 2.5 mg/eye, intravitreal 2.5 mg/eye (~1.54 mg/kg), suspension, read-out: plasma Average
[6] = New Zealand White, rabbit, other: intravitreal, 2.5 mg/eye, intravitreal 2.5 mg/eye (~1.54 mg/kg), suspension, read-out: plasma Conc., individual rabbit
[7] = New Zealand White, rabbit, sc, 5 mg/kg, subcutaneous 5 mg/kg/dose, suspension
[8] = New Zealand White, rabbit, subcutaneous, 5 mg/kg/dose, subcutaneous 5 mg/kg/dose, suspension, read-out: plasma Average
[9] = New Zealand White, rabbit, subcutaneous, 5 mg/kg/dose, subcutaneous 5 mg/kg/dose, suspension, read-out: plasma Conc., individual rabbit
[10] = intravitreal suspension, normalized by 1.54 mg/kg
[11] = subcutaneous suspension, normalized by 5 mg/kg

## COC(=O)N[C@@H](Cc1ccccc1)C(=O)N[C@@H](Cc1ccc(NS(=O)(=O)O)cc1)c1csc(-c2cccs2)n1 [Compound 1 free acid]
[1]; [3]
  AUC(0-inf): 746 ng·h/mL
  Cmax: 25.3 ng/mL
  MRT last: 19.1 h
  half-life: 16.5 h
  AUC(0-t): 707 ng·h/mL
[1]; New Zealand White, rabbit, other: intravitreal, 1.54 mg/kg, intravitreal 2.5 mg/eye (~1.54 mg/kg), suspension, read-out: tmax
  Tmax: 1 h
[1]; [4]
  AUC(0-inf): 746 ng·h/mL
  Cmax: 25.3 ± 9.3 ng/mL
  MRT last: 19.1 h
  half-life: 16.5 h
  AUC(0-t): 707 ± 53.1 ng·h/mL
[1]; New Zealand White, rabbit, other: intravitreal, 2.5 mg, intravitreal 2.5 mg/eye (~1.54 mg/kg), suspension, read-out: tmax
  Tmax: 1 h
[1]; New Zealand White, rabbit, other: intravitreal, 2.5 mg/eye, intravitreal 2.5 mg/eye (~1.54 mg/kg), suspension, 1.0 hr, read-out: plasma Average
  concentration at 1 h: 25.3 ng/mL
[1]; [5]
  concentration at 3 h: 24.4 ng/mL
  concentration at 6 h: 23.1 ng/mL
  concentration at 24 h: 12.3 ng/mL
  concentration at 48 h: 3.63 ng/mL
  concentration at 72 h: 1.65 ng/mL
[1]; [6]
  concentration at 3 h: 28.4 ng/mL
  concentration at 6 h: 22 ng/mL
  concentration at 24 h: 9.96 ng/mL
  concentration at 48 h: 2.69 ng/mL
  concentration at 72 h: 1.83 ng/mL
[1]; [7]
  AUC(0-t): 864 ± 69 ng·h/mL
  AUC(0-inf): 1200 ng·h/mL
  Cmax: 395 ± 170 ng/mL
  MRT last: 1.58 h
  half-life: 2.12 h
[1]; New Zealand White, rabbit, sc, 5 mg/kg, subcutaneous 5 mg/kg/dose, suspension, read-out: tmax
  Tmax: 0.25 h
[1]; New Zealand White, rabbit, sc, 5 mg/kg, subcutaneous administration, suspension, read-out: Mean plasma Tmax (converted)
  Tmax: 0.25 h
[1]; New Zealand White, rabbit, subcutaneous, 5 mg/kg/dose, subcutaneous 5 mg/kg/dose, suspension, 0.25 hr, read-out: plasma Average
  concentration at 0.25 hr: 395 ng/mL
[1]; [8]
  concentration at 0.5 hr: 337 ng/mL
  concentration at 2 hr: 206 ng/mL
  concentration at 4 hr: 110 ng/mL
[1]; [9]
  concentration at 0.5 hr: 272 ng/mL
  concentration at 2 hr: 194 ng/mL
  concentration at 4 hr: 111 ng/mL
[1]; New Zealand White, rabbit, subcutaneous, 5 mg/kg/dose, subcutaneous 5 mg/kg/dose, suspension, 1.0 hr, read-out: plasma Average
  concentration at 1 hr: 295 ng/mL
[1]; New Zealand White, rabbit, subcutaneous, 5 mg/kg/dose, subcutaneous 5 mg/kg/dose, suspension, 1.0 hr, read-out: plasma Conc., individual rabbit
  concentration at 1 hr: 300 ng/mL
[1]; [10]
  Dose normalized AUClast: 459 kg·ng·h/mL/mg
  Dose normalized AUC∞: 484 kg·ng·h/mL/mg
[1]; intravitreal suspension, normalized by 1.54 mg/kg, listed as Compound 1 (free acid)
  Dose normalized AUClast: 459 ± 34.5 kg·ng·h/mL/mg
[1]; [11]
  Dose normalized AUClast: 173 kg·ng·h/mL/mg
  Dose normalized AUC∞: 240 kg·ng·h/mL/mg
[1]; subcutaneous suspension, normalized by 5 mg/kg, listed as Compound 1 (free acid)
  Dose normalized AUClast: 173 ± 13.8 kg·ng·h/mL/mg

## COC(=O)N[C@@H](Cc1ccccc1)C(=O)N[C@@H](Cc1ccc(NS(=O)(=O)O)cc1)c1csc(-c2cccs2)n1 [Compound 1]
[2]
  diffusion across rabbit cornea and sclera: substantial diffusion
